Results reported in patent US20240299385A1 (ReWind Therapeutics NV, priority 2021, published 2024).

The molecules below were run against T1, human GPR17 receptor (Homo sapiens, UniProt Q13304) (assay: Calcium mobilization functional assay (Fluo-8, FLIPR TETRA) in HEK-293 hGPR17 (Gα-q assay)). Details: antagonism of MDL29,951 (~EC80) induced Ca2+ signal; cell line (HEK-293 hGPR17 or HEK-293 Suchi5 hGPR17) not given.
T1 construct: host or cells: HEK-293
T1 sequence (Q13304 whole entry): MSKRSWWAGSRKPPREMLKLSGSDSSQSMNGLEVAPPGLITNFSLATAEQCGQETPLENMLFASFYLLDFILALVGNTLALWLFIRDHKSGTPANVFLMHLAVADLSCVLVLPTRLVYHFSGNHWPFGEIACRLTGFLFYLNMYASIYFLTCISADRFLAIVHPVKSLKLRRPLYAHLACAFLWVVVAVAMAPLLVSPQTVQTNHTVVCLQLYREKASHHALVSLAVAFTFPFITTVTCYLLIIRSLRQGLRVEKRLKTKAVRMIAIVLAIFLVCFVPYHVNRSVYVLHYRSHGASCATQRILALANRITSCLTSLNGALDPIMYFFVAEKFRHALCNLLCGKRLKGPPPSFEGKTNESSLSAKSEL
Type: cell-based
Procedure, shortened: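 Fluo-8-loaded HEK-293 hGPR17 cells (60 min dye loading, room temperature) were preincubated with compound for twenty minutes, then challenged with agonist MDL29,951 at ~EC80, 500 nM. Intracellular calcium release via Gα-q was recorded as FLIPR fluorescence for a further 2 minutes; compounds tested in duplicate.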
With COc1nccc(F)c1-c1cc(S(=O)(=O)Nc2cc(F)c(C(F)(F)F)cc2F)c[nH]1 [Cpd 224, N-[2,5-difluoro-4-(trifluoromethyl)phenyl]-5-(4-fluoro-2-methoxy-3-pyridyl)-1H-pyrrole-3-sulfonamide] the IC50 was less than 0.5 µM.
COc1nccc(F)c1-c1cc(S(=O)(=O)Nc2ccc(Cl)cc2F)c[nH]1 [Cpd 227, N-(4-chloro-2-fluoro-phenyl)-5-(4-fluoro-2-methoxy-3-pyridyl)-1H-pyrrole-3-sulfonamide] gave an IC50 of 0.5 to 5 µM.
In the case of N#Cc1ccc(NS(=O)(=O)c2c[nH]cc2-c2cccc(Cl)c2)c(F)c1 [Cpd 228, 4-(3-chlorophenyl)-N-(4-cyano-2-fluoro-phenyl)-1H-pyrrole-3-sulfonamide], the IC50 is reported as less than 0.5 µM.
N#Cc1ccc(NS(=O)(=O)c2c[nH]cc2-c2ccccn2)c(F)c1 [Cpd 229, N-(4-cyano-2-fluoro-phenyl)-4-(2-pyridyl)-1H-pyrrole-3-sulfonamide] gave an IC50 of 0.5 to 5 µM.
N#Cc1ccc(NS(=O)(=O)c2c[nH]cc2-c2cccc(F)c2)c(F)c1 [Cpd 230, N-(4-cyano-2-fluoro-phenyl)-4-(3-fluorophenyl)-1H-pyrrole-3-sulfonamide] was tested, and the IC50 was less than 0.5 µM.
In the case of N#Cc1ccc(NS(=O)(=O)c2c[nH]cc2-c2ccccc2F)c(F)c1 [Cpd 231, N-(4-cyano-2-fluoro-phenyl)-4-(2-fluorophenyl)-1H-pyrrole-3-sulfonamide], the IC50 is reported as 0.5 to 5 µM.
O=S(=O)(Nc1cc(F)c(OC(F)F)cc1F)c1c[nH]c(-c2ccccc2)c1 [Cpd 232, N-[4-(difluoromethoxy)-2,5-difluoro-phenyl]-5-phenyl-1H-pyrrole-3-sulfonamide] showed an IC50 of less than 0.5 µM.
O=S(=O)(Nc1ccc(OC(F)F)nc1)c1c[nH]c(-c2ccccc2)c1 [Cpd 233, N-[6-(difluoromethoxy)-3-pyridyl]-5-phenyl-1H-pyrrole-3-sulfonamide] was tested, and the IC50 was 0.5 to 5 µM.
In the case of O=S(=O)(Nc1cc(F)c(C(F)(F)F)cc1F)c1c[nH]c(-c2cc(CO)ccc2F)c1 [Cpd 234, N-[2,5-difluoro-4-(trifluoromethyl)phenyl]-5-[2-fluoro-5-(hydroxymethyl)phenyl]-1H-pyrrole-3-sulfonamide], the IC50 is reported as less than 0.5 µM.
For COCc1ccc(F)c(-c2cc(S(=O)(=O)Nc3cc(F)c(C(F)(F)F)cc3F)c[nH]2)c1 [Cpd 235, N-[2,5-difluoro-4-(trifluoromethyl)phenyl]-5-[2-fluoro-5-(methoxymethyl)phenyl]-1H-pyrrole-3-sulfonamide], the IC50 was 0.5 to 5 µM.
For N#Cc1ccc(NS(=O)(=O)c2c[nH]c(C3CC3)c2)c(F)c1 [Cpd 236, N-(4-cyano-2-fluoro-phenyl)-5-cyclopropyl-1H-pyrrole-3-sulfonamide], the IC50 was 5 to 50 µM.
Work on CCOc1cc(F)c(NS(=O)(=O)c2c[nH]c(-c3ccccn3)c2)cc1F [Cpd 237, N-(4-ethoxy-2,5-difluoro-phenyl)-5-(2-pyridyl)-1H-pyrrole-3-sulfonamide] yielded an IC50 of 0.5 to 5 µM.
N#Cc1ccc(NS(=O)(=O)c2c[nH]cc2C2=CCCC2)c(F)c1 [Cpd 238, N-(4-cyano-2-fluorophenyl)-4-(cyclopent-1-en-1-yl)-1H-pyrrole-3-sulfonamide] gave an IC50 of less than 0.5 µM.
O=S(=O)(Nc1ccc(OC(F)F)cc1F)c1c[nH]c(-c2ccccn2)c1 [Cpd 239, N-[4-(difluoromethoxy)-2-fluoro-phenyl]-5-(2-pyridyl)-1H-pyrrole-3-sulfonamide] gave an IC50 of 0.5 to 5 µM.
In the case of CCOc1ccccc1-c1cc(S(=O)(=O)Nc2ccc(C#N)cc2F)c[nH]1 [Cpd 240, N-(4-cyano-2-fluoro-phenyl)-5-(2-ethoxyphenyl)-1H-pyrrole-3-sulfonamide], the IC50 is reported as 0.5 to 5 µM.
Work on CC(C)Oc1cc(F)c(NS(=O)(=O)c2c[nH]c(-c3ccccn3)c2)cc1F [Cpd 241, N-(2,5-difluoro-4-isopropoxy-phenyl)-5-(2-pyridyl)-1H-pyrrole-3-sulfonamide] yielded an IC50 of 5 to 50 µM.
For N#Cc1ccc(NS(=O)(=O)c2c[nH]cc2C2CCCC2)c(F)c1 [Cpd 242, N-(4-cyano-2-fluoro-phenyl)-4-cyclopentyl-1H-pyrrole-3-sulfonamide], the IC50 was 5 to 50 µM.
O=S(=O)(Nc1cc(F)c(C(F)(F)F)cc1F)c1c[nH]c(-c2nccn2CC(F)(F)F)c1 [Cpd 243, N-[2,5-difluoro-4-(trifluoromethyl)phenyl]-5-[1-(2,2,2-trifluoroethyl)imidazol-2-yl]-1H-pyrrole-3-sulfonamide] showed an IC50 of 5 to 50 µM.
In the case of N#Cc1ccc(NS(=O)(=O)c2c[nH]c(-c3ccccc3OC(F)F)c2)c(F)c1 [Cpd 244, N-(4-cyano-2-fluoro-phenyl)-5-[2-(difluoromethoxy)phenyl]-1H-pyrrole-3-sulfonamide], the IC50 is reported as less than 0.5 µM.
O=C1CCCN1c1cc(S(=O)(=O)Nc2cc(F)c(C(F)(F)F)cc2F)c[nH]1 [Cpd 245, N-[2,5-difluoro-4-(trifluoromethyl)phenyl]-5-(2-oxopyrrolidin-1-yl)-1H-pyrrole-3-sulfonamide] showed an IC50 of 5 to 50 µM.
O=S(=O)(Nc1cc(F)c(OC(F)(F)F)cc1F)c1c[nH]c(-c2ccccn2)c1 [Cpd 246, N-[2,5-difluoro-4-(trifluoromethoxy)phenyl]-5-(2-pyridyl)-1H-pyrrole-3-sulfonamide] was tested, and the IC50 was less than 0.5 µM.
Work on COc1ccnc(F)c1-c1cc(S(=O)(=O)Nc2cc(F)c(C(F)(F)F)cc2F)c[nH]1 [Cpd 247, N-[2,5-difluoro-4-(trifluoromethyl)phenyl]-5-(2-fluoro-4-methoxy-3-pyridyl)-1H-pyrrole-3-sulfonamide] yielded an IC50 of 0.5 to 5 µM.
CCn1ccnc1-c1cc(S(=O)(=O)Nc2cc(F)c(C(F)(F)F)cc2F)c[nH]1 [Cpd 248, N-[2,5-difluoro-4-(trifluoromethyl)phenyl]-5-(1-ethylimidazol-2-yl)-1H-pyrrole-3-sulfonamide] showed an IC50 of 0.5 to 5 µM.
In the case of Cc1c(F)cccc1-c1cc(S(=O)(=O)Nc2ccc(C#N)cc2F)c[nH]1 [Cpd 249, N-(4-cyano-2-fluoro-phenyl)-5-(3-fluoro-2-methyl-phenyl)-1H-pyrrole-3-sulfonamide], the IC50 is reported as 0.5 to 5 µM.
Cc1ccc(-c2cc(S(=O)(=O)Nc3ccc(C#N)cc3F)c[nH]2)c(Cl)c1 [Cpd 250, 5-(2-chloro-4-methyl-phenyl)-N-(4-cyano-2-fluoro-phenyl)-1H-pyrrole-3-sulfonamide] gave an IC50 of 0.5 to 5 µM.
Work on COc1ccc(-c2cc(S(=O)(=O)Nc3ccc(C#N)cc3F)c[nH]2)c(C)c1 [Cpd 251, N-(4-cyano-2-fluoro-phenyl)-5-(4-methoxy-2-methyl-phenyl)-1H-pyrrole-3-sulfonamide] yielded an IC50 of 5 to 50 µM.
In the case of Cc1cccc(-c2cc(S(=O)(=O)Nc3ccc(C#N)cc3F)c[nH]2)c1C [Cpd 252, N-(4-cyano-2-fluoro-phenyl)-5-(2,3-dimethylphenyl)-1H-pyrrole-3-sulfonamide], the IC50 is reported as 0.5 to 5 µM.
Cc1c(Cl)cccc1-c1cc(S(=O)(=O)Nc2ccc(C#N)cc2F)c[nH]1 [Cpd 253, 5-(3-chloro-2-methyl-phenyl)-N-(4-cyano-2-fluoro-phenyl)-1H-pyrrole-3-sulfonamide] showed an IC50 of 0.5 to 5 µM.
Cc1ccc(Cl)c(-c2cc(S(=O)(=O)Nc3ccc(C#N)cc3F)c[nH]2)c1 [Cpd 254, 5-(2-chloro-5-methyl-phenyl)-N-(4-cyano-2-fluoro-phenyl)-1H-pyrrole-3-sulfonamide] showed an IC50 of 0.5 to 5 µM.
Molecule Cc1cc(F)ccc1-c1cc(S(=O)(=O)Nc2ccc(C#N)cc2F)c[nH]1 [Cpd 255, N-(4-cyano-2-fluoro-phenyl)-5-(4-fluoro-2-methyl-phenyl)-1H-pyrrole-3-sulfonamide] has an IC50 of 0.5 to 5 µM.
In the case of N#Cc1ccc(NS(=O)(=O)c2c[nH]c(-c3cc(F)ccc3Cl)c2)c(F)c1 [Cpd 256, 5-(2-chloro-5-fluoro-phenyl)-N-(4-cyano-2-fluoro-phenyl)-1H-pyrrole-3-sulfonamide], the IC50 is reported as less than 0.5 µM.
With COc1ccc(Cl)c(-c2cc(S(=O)(=O)Nc3ccc(C#N)cc3F)c[nH]2)c1 [Cpd 257, 5-(2-chloro-5-methoxy-phenyl)-N-(4-cyano-2-fluoro-phenyl)-1H-pyrrole-3-sulfonamide] the IC50 was less than 0.5 µM.
Work on N#Cc1ccc(NS(=O)(=O)c2c[nH]c(-c3ccc(F)cc3Cl)c2)c(F)c1 [Cpd 258, 5-(2-chloro-4-fluoro-phenyl)-N-(4-cyano-2-fluoro-phenyl)-1H-pyrrole-3-sulfonamide] yielded an IC50 of less than 0.5 µM.
COc1cc(-c2cc(S(=O)(=O)Nc3ccc(C#N)cc3F)c[nH]2)ccc1F [Cpd 259, N-(4-cyano-2-fluoro-phenyl)-5-(4-fluoro-3-methoxy-phenyl)-1H-pyrrole-3-sulfonamide] gave an IC50 of 0.5 to 5 µM.
N#Cc1ccc(NS(=O)(=O)c2c[nH]c(-c3cc(Cl)ccc3Cl)c2)c(F)c1 [Cpd 260, N-(4-cyano-2-fluoro-phenyl)-5-(2,5-dichlorophenyl)-1H-pyrrole-3-sulfonamide] showed an IC50 of less than 0.5 µM.
N#Cc1ccc(NS(=O)(=O)c2c[nH]c(-c3ccc(Cl)cc3Cl)c2)c(F)c1 [Cpd 261, N-(4-cyano-2-fluoro-phenyl)-5-(2,4-dichlorophenyl)-1H-pyrrole-3-sulfonamide] gave an IC50 of 0.5 to 5 µM.
Molecule Cc1cc(Cl)ccc1-c1cc(S(=O)(=O)Nc2ccc(C#N)cc2F)c[nH]1 [Cpd 262, 5-(4-chloro-2-methyl-phenyl)-N-(4-cyano-2-fluoro-phenyl)-1H-pyrrole-3-sulfonamide] has an IC50 of 0.5 to 5 µM.
For Cc1cccc(-c2cc(S(=O)(=O)Nc3ccc(C#N)cc3F)c[nH]2)c1Cl [Cpd 263, 5-(2-chloro-3-methyl-phenyl)-N-(4-cyano-2-fluoro-phenyl)-1H-pyrrole-3-sulfonamide], the IC50 was 0.5 to 5 µM.
Cc1ccc(-c2cc(S(=O)(=O)Nc3ccc(C#N)cc3F)c[nH]2)cc1F [Cpd 264, N-(4-cyano-2-fluoro-phenyl)-5-(3-fluoro-4-methyl-phenyl)-1H-pyrrole-3-sulfonamide] was tested, and the IC50 was 0.5 to 5 µM.
For COc1cccc(Cl)c1-c1cc(S(=O)(=O)Nc2ccc(C#N)cc2F)c[nH]1 [Cpd 265, 5-(2-chloro-6-methoxy-phenyl)-N-(4-cyano-2-fluoro-phenyl)-1H-pyrrole-3-sulfonamide], the IC50 was 0.5 to 5 µM.
With COc1cccc(-c2cc(S(=O)(=O)Nc3ccc(C#N)cc3F)c[nH]2)c1Cl [Cpd 266, 5-(2-chloro-3-methoxy-phenyl)-N-(4-cyano-2-fluoro-phenyl)-1H-pyrrole-3-sulfonamide] the IC50 was 5 to 50 µM.
